Laboratory results taken from patent publication US11866460B2 (priority 2015, dated 2024).
Where two headings read alike, the source gives them in different places. Where a SMILES comes first, the peptide text is derived from it. Where no end group is shown, it is not given here.

Assays:
S. aureus (ATCC 25923) = conditions: for MIC in PB: 10 mM potassium phosphate buffer, pH 7.2; for MIC in PBS: phosphate-buffered saline
CHIKV 181/25 [1] = conditions: for EC50: 0 h
Vero cells = conditions: African green monkey
VEEV TC-83 = conditions: 0 h
in vitro = conditions: African green monkey
DENV-3 H87 = conditions: for Therapeutic Index (CC50/EC50): -3 H87
JEV 14-14-2 = conditions: for EC50: 0 h
DENV-4 H241 = conditions: for Therapeutic Index (CC50/EC50): -4 H241
DENV-1 PRS41393 = conditions: for Therapeutic Index (CC50/EC50): -1 PRS41393
CHIKV 181/25 [2] = experiment: microbe, parasite or virus in culture; conditions: Chikungunya virus, Vero
[3] = tested on: panel of enveloped viruses (DENV, JEV, YFV, CHIKV and others)
[4] = read-out: EC50 Values for the Indicated Virus

Molecule	MIC in PB (S. aureus (ATCC 25923)) [µM]	MIC in PBS (S. aureus (ATCC 25923)) [µM]	MHC (human erythrocyte cells) [µM]	Therapeutic Index (CC50/EC50) (YFV 17D)	Therapeutic Index (CC50/EC50) (DENV-2 New Guinea C; -2 New Guinea C)	Therapeutic Index (CC50/EC50) (CHIKV 181/25 [1])	CC50 (in vitro) [µM]	Therapeutic Index (CC50/EC50) (DENV-3 H87)	Therapeutic Index (CC50/EC50) (DENV-4 H241)	Therapeutic Index (CC50/EC50) (DENV-1 PRS41393)	Therapeutic Index (CC50/EC50) (JEV 14-14-2)	also measured
GSSWLRDIWTKLQSWL [TSG005]	1.5	1.5	13									
GSSWLRDVWTWLQSAL [TSG003]	1.5	1.5	50	18.05	22.33	17.72	24.5	22.33	20.23	11.46		CC50 (Vero cells): 38.6 µM; EC50 (VEEV TC-83): > 12.5 µM; EC50 (JEV 14-14-2): 16.3 µM; EC50 (DENV-1 PRS41393; -1 PRS41393, 0 h): 6.12 µM
Nc1ccn(C[C@@H](CO)OCP(=O)(O)O)c(=O)n1 [Cidofovir]							> 375					
GSSWLRDVWTKLQSWL [TSG004]	1.5	1.5	50	14.33	18.29	14.89	111	18.64	15.88	13.45	24.46	EC50 (DENV-2 New Guinea C; -2 New Guinea C, 0 h): 8.63 µM; EC50 (CHIKV 181/25 [1]): 9.52 µM; CC50 (Vero cells): 114 µM; EC50 (VEEV TC-83): > 50 µM; EC50 (DENV-4 H241; -4 H241, 0 h): 6500 nM; EC50 (DENV-1 PRS41393; -1 PRS41393, 0 h): 6.24 µM
GSSWLRDILTALQSLL [TSG007]	1.5	1.5	1.5									
O=c1cnn([C@@H]2O[C@H](CO)[C@@H](O)[C@H]2O)c(=O)[nH]1 [6-azauridine]												EC50 (CHIKV 181/25 [2]): 290 nM
SWLRDIWDWICEVLSDFK [C5A, reference compound]		>100	13	99.97	85.26	9.38		15.02	22.13	44.60	61.68	EC50 (in vitro): 29 µM; EC50 (DENV-3 H87; -3 H87, 0 h): 3.86 µM; EC50 (DENV-4 H241; -4 H241, 0 h): 1650 nM
SGSWLRDVWTWLQSKL [TSG001 L-isomer]												CC50 (Vero cells): > 20 µM
GSSWLRDIWTALQSWL [TSG006]	1.5	1.5	3	22.09	26.04	5.07	14.9	11.71	11.63	12.03	10.71	EC50 (DENV-3 H87; -3 H87, 0 h): 1.63 µM; EC50 (DENV-4 H241; -4 H241, 0 h): 2110 nM; EC50 (DENV-1 PRS41393; -1 PRS41393, 0 h): 1.56 µM
AGSWLRDILTLLQSAL [TSG009]	1.5	1.5	1.5									
CC(C)C[C@H](NC(=O)[C@H](CCCCN)NC(=O)[C@H](CO)NC(=O)[C@H](CCC(N)=O)NC(=O)[C@H](CC(C)C)NC(=O)[C@H](Cc1c[nH]c2ccccc12)NC(=O)[C@@H](NC(=O)[C@H](Cc1c[nH]c2ccccc12)NC(=O)[C@@H](NC(=O)[C@H](CC(=O)O)NC(=O)[C@H](CCCNC(=N)N)NC(=O)[C@H](CC(C)C)NC(=O)[C@H](Cc1c[nH]c2ccccc12)NC(=O)[C@H](CO)NC(=O)[C@H](CO)NC(=O)CNC(=O)CCOCCOCCOCCOCCOCCOCCOCCOCCOCCOCCOCCOCCNC(=O)CCOCCOCCOCCOCCOCCOCCOCCOCCOCCOCCOCCOCCN)C(C)C)[C@@H](C)O)C(N)=O [TSGX2X] (HELM PEPTIDE1{[NCCOCCOCCOCCOCCOCCOCCOCCOCCOCCOCCOCCOCCC(=O)[*:2]].[O=C(CCOCCOCCOCCOCCOCCOCCOCCOCCOCCOCCOCCOCCN[*:1])[*:2]].G.S.S.W.L.R.D.V.W.T.W.L.Q.S.K.L.[am]}$$$$V2.0)												antiviral activities of pegylated peptides [3]: reduced; antiviral activity of pegylated peptides [3]: preserve strong antiviral activity; efficacy against infection [3]: effective; EC50 (Ebola virus (EBOV)): 29.9 µM; EC50 (Ebola virus (EBOV); [4]): 29.9 µM; EC50 (Marburg virus (MARV)): 44.3 µM; EC50 (Marburg virus (MARV); [4]): 44.3 µM
GSSWLRDVWTWLQSKL [TSG002]	1.5	1.5	50	7.40	9.60	4.73		6.09	8.58	10.41	6.72	EC50 (DENV-2 New Guinea C; -2 New Guinea C, 0 h): 2.74 µM; EC50 (CHIKV 181/25 [1]): 3.21 µM; CC50 (Vero cells): 16.1 µM; EC50 (VEEV TC-83): > 12.5 µM; EC50 (Ebola virus (EBOV)): 1.01 µM; EC50 (Marburg virus (MARV)): 0.922 µM; EC50 (DENV-3 H87; -3 H87, 0 h): 5.09 µM
AGSWLRDIWTWLQSAL [TSG008]	1.5	1.5	1.5									
CC(C)C[C@H](NC(=O)[C@H](CCCCN)NC(=O)[C@H](CO)NC(=O)[C@H](CCC(N)=O)NC(=O)[C@H](CC(C)C)NC(=O)[C@H](Cc1c[nH]c2ccccc12)NC(=O)[C@@H](NC(=O)[C@H](Cc1c[nH]c2ccccc12)NC(=O)[C@@H](NC(=O)[C@H](CC(=O)O)NC(=O)[C@H](CCCNC(=N)N)NC(=O)[C@H](CC(C)C)NC(=O)[C@H](Cc1c[nH]c2ccccc12)NC(=O)[C@H](CO)NC(=O)CNC(=O)[C@H](CO)NC(=O)CCOCCOCCOCCOCCOCCOCCOCCOCCOCCOCCOCCOCCNC(=O)CCOCCOCCOCCOCCOCCOCCOCCOCCOCCOCCOCCOCCN)C(C)C)[C@@H](C)O)C(N)=O [TSGX1X] (HELM PEPTIDE1{[NCCOCCOCCOCCOCCOCCOCCOCCOCCOCCOCCOCCOCCC(=O)[*:2]].[O=C(CCOCCOCCOCCOCCOCCOCCOCCOCCOCCOCCOCCOCCN[*:1])[*:2]].S.G.S.W.L.R.D.V.W.T.W.L.Q.S.K.L.[am]}$$$$V2.0)												EC50 (YFV 17D): 22.4 µM; antiviral activities of pegylated peptides [3]: reduced; antiviral activity of pegylated peptides [3]: preserve strong antiviral activity; efficacy against infection [3]: effective; EC50 (DENV-2 New Guinea C): 3.86 µM; EC50 (CHIKV 181/25 [1]): 27.2 µM; EC50 (Ebola virus (EBOV)): 13.5 µM; EC50 (Ebola virus (EBOV); [4]): 13.5 µM; EC50 (Marburg virus (MARV)): 14.3 µM; EC50 (Marburg virus (MARV); [4]): 14.3 µM; EC50 (DENV-3 H87): 2.28 µM; EC50 (JEV 14-14-2): 1.27 µM; EC50 (DENV-4 H241): 3540 nM; EC50 (DENV-1 PRS41393): 4.98 µM
CC[C@H](C)[C@H](NC(=O)[C@H](Cc1c[nH]c2ccccc12)NC(=O)[C@H](CC(=O)O)NC(=O)[C@H](Cc1c[nH]c2ccccc12)NC(=O)[C@@H](NC(=O)[C@H](CC(=O)O)NC(=O)[C@H](CCCNC(=N)N)NC(=O)[C@H](CC(C)C)NC(=O)[C@H](Cc1c[nH]c2ccccc12)NC(=O)[C@H](CO)NC(=O)CNC(=O)[C@@H](N)CO)C(C)C)C(=O)N[C@@H](CS)C(=O)N[C@H](C(=O)N[C@H](C(=O)N[C@@H](CC(C)C)C(=O)N[C@H](C(=O)N[C@@H](CC(=O)O)C(=O)N[C@@H](Cc1ccccc1)C(=O)N[C@@H](CCCCN)C(=O)N[C@H](C(=O)N[C@@H](Cc1c[nH]c2ccccc12)C(=O)N[C@@H](CC(C)C)C(=O)N[C@@H](CCC(N)=O)C(=O)N[C@@H](CO)C(=O)N[C@@H](CCCCN)C(=O)N[C@@H](CC(C)C)C(=O)O)[C@@H](C)O)[C@@H](C)O)C(C)C)[C@@H](C)O [AH, reference compound]			50	5.87	708.11	21.21	192	17.65	36.84	49.98	236.04	EC50 (in vitro): 127 µM
